Results on 20 sequences are retold here after patent US7906620B2, “Tumor associated antigen, peptides thereof, and use of same as anti-tumor vaccines” (Yeda Research and Development Co. Ltd., priority 2002, dated 2011).

Assay [1] deals with peptide loaded on labeled RMA-S/HHD. The assay can be described thus: Immunogenicity of peptides in HHD mice: vaccination with peptide-loaded RMA-S/HHD/B7.1, cytolytic assay on peptide-loaded targets. It is filed as in vivo. The settings on record: for Score: immunogenic score: ratio of specific lysis, specific peptide vs tyrosinase peptide loaded on RMA-S/HHD, average of two experiments, positive above 125%; for antigenic / immunogenic in HHD mice: mouse, in vivo. As for the experimental part: FIG. 4 is a graph of the results of in vitro cytolytic assays. Seven peptides are immunogenic. Peptides were loaded on RMA-S/HHD/B7.1, washed and irradiated. HHD mice were immunized three times as described in the materials and methods section in Example 1. In vitro cytolytic assays were performed on the relevant peptide as target and on an irrelevant peptide. The score was deduced from the ratio of the specific lysis that were obtained. The positive peptides (above 125%) are marked by arrows. Peptides 1-6, 3-5 and 3-7 are derived from “Human 1-8D gene”.
Vaccination. HHD mice were immunized i.p. 3 times at 7-day intervals with 2×10^6 irradiated (5000 rad) tumor cells, or irradiated peptide-loaded RMA-S/HHD/B7.1 transfectants. Spleens were removed on day 10 after the last immunization, and splenocytes were restimulated in vitro, either with irradiated tumor cells or with one third of the lymphocytes pre-pulsed with 100 μM synthetic peptides in opti-MEM (Life Technologies) for 2 hr at 37° C., 5% CO2. Restimulated lymphocytes were cultured in RPMI-HEPES medium containing 10% FCS, 2 mM glutamine, combined antibiotics, 1 mM sodium pyruvate, 25 mM HEPES, 5×10^−5M PME and 1% NEAA for 5 days. Viable cells (effectors) were separated by Lympholyte-M (Cedarlane, Hornby, Canada) gradient, resuspended and admixed at different ratios with 5,000 ^35S-methionine-labeled target cells. Cytolytic assays were carried out as described previously in Carmon et al., 2000. Extracts of tumor peptides or normal colon peptides were prepared from a pool of 6 post-surgical colon carcinoma specimens as described before Carmon et al., 2000.
The antigenic peptides were tested for their specific immunogenicity in HHD mice. HHD mice were vaccinated with RMA-S/HHD/B7.1 cells loaded with each of the peptides (listed in Table 3), their spleens were removed, and resensitized in vitro with synthetic peptides for four days. On the fifth day, a cytolytic assay was performed on two targets, either the peptide itself loaded on labeled RMA-S/HHD or the tyrosinase peptide as a negative control. The ratio of specific lysis between specific and tyrosinase peptides was defined as “immunogenic score”. This experiment was repeated twice and the average score of each of the antigenic peptides is specified (Table 3 and FIG. 4). The horizontal line in FIG. 4 represents the limit of 95% significance as defined by assuming normal distribution of scores.

Assay [2] has as its system T2 cells. The assay is described as follows: In vitro priming of human CTL with prostate peptides, cytolytic assay on peptide pulsed T2 cells. Format: cell-based. The settings on record: three healthy and two CaP individuals. As for the experimental part:
FIGS. 16A-16D are graphs showing in vitro priming of human CTLs. PBMC of leukopheresis samples were isolated and in vitro CTL primed with peptide pulsed autologous DC. PBMC were supplemented with IL-7 and two days later IL-2 was added and renewed every three days. Additional two cycles of re-stimulation were done every 7 days over peptide pulsed monocytes. Seven days after the last stimulation cytolytic assay was performed using peptide pulsed or non-pulsed T2 cells as target. In FIG. 16A, PBMC derived from CaP individual (donor A) were primed and re-stimulated with STEAP-3 pulsed DC/monocytes. Target cells: relevant (STEAP-3) and non-relevant peptide (HIV-derived, PAP-3) pulsed T2 cells. In FIG. 16B, PBMC derived from healthy individual (donor B) were primed and restimulated with PAP-3 pulsed DC/monocytes. Target cells: relevant (PAP-3) and non-relevant peptide (HIV-derived, STEAP-3) pulsed T2 cells. PBMC derived from healthy individual (donor C) were primed and restimulated with either PAP-3 (C-1; FIG. 16C) or STEAP-3 (C-2; FIG. 16D) pulsed DC/monocytes. Relevant (PAP-3 or STEAP-3) peptide pulsed and non-pulsed T2 cells were used as targets.
FIGS. 17A-17C are graphs showing peptide specific CTL induced in human PBMC by PAP-3 (FIG. 17A), STEAP-3 (FIG. 17B), and PSGR-1 (FIG. 17C). PBMC from a healthy donor were stimulated by peptide pulsed DC as described and CTL activity was tested on homologous peptide pulsed T2 target cells (HLA-A2 lymphoma, TAP deficient).
Finally, peripheral blood of two healthy (donors B, C) and one CaP (donor A) individuals were tested for the existence of CTL precursors (FIGS. 16A-16D). Leukopheresis products of the donors were obtained from Barzilai Medical Center (Ashkelon, Israel) according to Declaration of Helsinki Principles. PBMC were isolated by centrifugation on Ficoll-Plaque Plus gradients (Amersham, Sweden). In vitro priming of CTL was done over autologous DC that were prepared from monocytes by IL-4 and GM-CSF treatment and maturated with a IL-1β, IL-6, TNF-α and PGE2 cocktail. DC were pulsed with synthetic peptides and PBMC were supplemented with IL-7. Two days later, IL-2 was added and renewed every three days. Two additional re-stimulations were done every 7 days over peptide pulsed monocytes. Seven days after the third stimulation, lymphocytes were harvested and a cytolytic assay was performed using relevant/non-relevant peptide pulsed or non-pulsed at all T2 cells.
(§1) When human PBMC are stimulated in vitro by PAP-3 and STEAP-3 peptides, the resulting CTL can lyse target cells (T2, EL4/HHD) pulsed with PAP-3, STEAP-3 or PSGR-1 and PSGR-6 peptides. (FIGS. 15 and 16). Here, these findings were expanded and peripheral blood of three healthy and two CaP individuals was tested for the existence of CTL precursors against PAP-3, STEAP-3 and PSGR-1 peptides. Leukopheresis products of the donors were obtained from Barzilai Medical Center (Ashkelon, Israel) according to Declaration of Helsinki Principles. PBMC were isolated by centrifugation on Ficoll-Plaque Plus gradients (Amersham, Sweden). In vitro priming of CTL was done over autologous DC that were prepared from monocytes by IL-4 and GM-CSF treatment and matured with a IL-1β, IL-6, TNF-α and PGE2 cocktail. DC were pulsed with synthetic peptides and PBMC were supplemented with IL-7. Two days later, IL-2 was added and renewed every three days. Two additional re-stimulations were done every 7 days over peptide pulsed monocytes. Seven days after the third stimulation, lymphocytes were harvested and a cytolytic assay was performed using relevant/non-relevant peptide pulsed or non-pulsed T2 cells (FIGS. 17A-17C) and LNCaP (high and low HLA expressors) cells as targets (FIGS. 18A-18E). […] Monitoring of HLA-A2-peptide specific CD8+ cells for PAP-3 and STEAP-3 was also performed by MHC-peptide tetramers (tetramers of recombinant HLA-A2.1-beta2 microglobulin single chain with peptides were prepared in collaboration with Dr Yoram Reiter, Technion, Haifa). […]

In assay [3] the test system is LNCaP. The assay is described as follows: Lysis of LNCaP tumor cells by human anti-peptide CTL. It is filed as cell-based. As to conditions: LNCaP high and low HLA expressors as targets.
Description: FIGS. 18A-18E are graphs showing that human anti-peptide CTL from a healthy donor kills LNCaP tumor cells. PBMC from a healthy donor (FIGS. 18A-18C) or a CaP patient (FIGS. 18D-18E) were stimulated with PAP-3 (FIGS. 18A, 18D), STEAP-3 (FIGS. 18B, 18E) or PSGR-1 (FIG. 18C) as described. LNCaP/CRL1740 (LNCaP high in HLA-A2.1 expression), LNCaP/CRL10995 (LNCaP low in HLA-A2.1 expression) and PC3 (negative for HLA-A2.1) served as targets in CTL assays.
as §1

Regarding “VIATNILLV (listed as Homo sapiens) [Peptide 1-9, Human chaperonin-like protein 368-346]”, the Score in assay [1] is reported as 69.7. On the same count and under the same terms, then “VQPQSPVAV (listed as Homo sapiens) [Peptide 1-3]”, with 112.0. Still for that read-out and setting: the same measure for “IQQYGHQEV (listed as Homo sapiens) [Peptide 1-7]”: 94.6; for “ALGFYPAEI (listed as Homo sapiens) [Peptide 3-3]”: 93.6.

As for “TILTAVLLV (listed as Homo sapiens) [Peptide 1-10, Human defensin 6 5-13]”, the Score in assay [1] was 97.5.

For “GQQSTVSDV (listed as Homo sapiens) [Peptide 1-5]”, the Score in assay [1] is reported as 125.0.

“TLQLSRAPV (listed as Homo sapiens) [Peptide 1-12, Human mRNA for dipeptidase 223-231]”: the Score in assay [1] stood at 107.9.

For the sequence “VLYDELKKV (listed as Homo sapiens) [Peptide 1-1, Human ADP/ATP translocase 253-261]”, the Score in assay [1] is on record as 121.7. Same read-out and setting: the same measure for “FELAAESDV (listed as Homo sapiens) [Peptide 1-4, Transforming growth factor beta induced gene 380-338]”: 83.3. On to “KIEDNNTLV (listed as Homo sapiens) [Peptide 2-3, Human ribosomal protein L23a mRNA 89-97]”, for which, in assay [1], the Score was 150.0; the “antigenic / immunogenic in HHD mice” value is “antigenic and immunogenic”. For “LLVIIPVLV (listed as Homo sapiens) [Peptide 1-2, Human 1-8D gene from interferon inducible gene 119-127]”, the Score in assay [1] was found to be 108.3. Still for that read-out and setting: then “IPMGKSMLV (listed as Homo sapiens) [Peptide 2-2, Insulin like growth factor II 3-11]”, with 9.5. As to “SIAEFFSDI (listed as Homo sapiens) [Peptide 3-2, Human TB2 gene 105-113]”, in assay [1], the Score came to 143.2; the “antigenic / immunogenic in HHD mice” value was “antigenic and immunogenic”. Turning to “ALRGHSHFV (listed as Homo sapiens) [Peptide 1-8, Human MHC protein homologous to chicken B complex 58-66]”, the Score in assay [1] worked out at 106.7. Consider “MLTINGKAI (listed as Homo sapiens) [Peptide 3-1, Transforming growth factor beta induced gene 343-351]”, for which, in assay [1], the Score is recorded as 147.1; the “antigenic / immunogenic in HHD mice” value was “antigenic and immunogenic”. For “ILLVMGVDV (listed as Homo sapiens) [PSGR-1, PSGR start position 202]”, in assay [2], the “activation of CTL precursors in PBMC derived from CaP patients and healthy donors” value is on record as “activated CTL precursors”. Also, the “lysis of tumor cells expressing endogenously processed proteins” value in assay [3] is “lyse tumor cells”. As for “WVVYGVFSI (listed as Homo sapiens) [Peptide 3-4, Human TB2 gene 98-106]”, the Score in assay [1] was determined as 90.9. Take “IVDDITYNV (listed as Homo sapiens) [Peptide 1-11]”: in assay [1], the Score came out at 126.8; the “antigenic / immunogenic in HHD mice” value was “antigenic and immunogenic”. Turning to “ALPDETEVV (listed as Homo sapiens) [Peptide 2-1, Human osteonectin 23-31]”, the Score in assay [1] was 115.0. On the same count and under the same terms, then “DLQETLVKI (listed as Homo sapiens) [Peptide 3-6, Human chaperonin like protein 316-324]”, with 84.6.
